The subject of one test is ST8814 cells. Nature of the test: Cell proliferation, trypan blue exclusion counting. Type of test: cell-based. Particulars: ST88-14, 96 h; day 4; read-out: 50% growth inhibitory concentration (GI50). The procedure:
(§1) FIG. 4. IODVA1 inhibits proliferation of cancer model cells. (A) IODVA1 is a potent cell proliferation inhibitor. MCF10A, MCF7, MDA-MB-231, and T47D cells were grown in the presence of the indicated IODVA1 concentrations and counted for 4 or up to 7 days. Each dot and bar is the mean±stdev respectively, of 3 independent experiments, with 2 technical replicates in each experiment. (B) Number of colonies made by MCF7, T47D, and MDA-MB-231 cells at the indicated IODVA1 concentrations. Results shown are mean±stdev of 2 independent experiments with 4 technical replicates each. (C) IODVA1 deactivates Ras at late incubation times. […] Quantification summary of 2 independent experiments is presented in the graph. n.s.—not significant, *-p<0.05, **-p<0.01, ****-p<0.0001. (D) IODVA1 inhibits proliferation of ST8814 cells. ST8814 cells were grown in the presence of the indicated IODVA1 concentrations and counted daily for 4 days. Each dot and bar is the mean and standard deviation respectively, of 3 independent experiments.
(§2) Applicants tested IODVA1's ability to inhibit the proliferation of cells harboring activated Ras and therefore its ability to recapitulate the compound obtained from the NCI. Applicants chose the NF1-associated malignant peripheral nerve sheath tumors (MPNST) cell line ST8814, which is characterized by active wild-type Ras (Basu et al., 1992; Mahller et al., 2006) and the triple negative breast cancer cell line MDA-MB-231 carrying the oncogenic KRAS^G13D mutation (Hollestelle et al., 2007). In addition, applicants used the non-transformed mammary epithelial cell line MCF10A (RAS^WT immortalized by a spontaneous t(3;9)(3p13;9p22) translocation that deletes the CDKN2A gene, also known as p16) and the non-invasive estrogen receptor (ER) and progesterone receptor (PR) positive RAS^WT breast cancer cell line MCF7 (wild-type p53) and T47D (mutant p53). Cells were grown in growth media containing IODVA1 at concentrations between 0.1 and 10 μM or vehicle control and cell number was counted using the trypan blue exclusion method. […] Appreciable decrease in proliferation of non-transformed MCF10A cells was not observed.

In the next test the test system is MCF10A cells. Nature of the test: Cell proliferation, trypan blue exclusion counting. Type of test: cell-based. As to conditions: 0.1 to 10 μM. How it is done:
as §1, §2

For another test, the system named is T47D cells. Description: Cell proliferation, trypan blue exclusion counting. Particulars: Homo sapiens, read-out: estimated GI50. Type of test: cell-based. How it is done:
as §1, §2

A further test relates to MDA-MB-231 cells. Nature of the test: Cell proliferation, trypan blue exclusion counting. Type of test: cell-based. Particulars: Homo sapiens, read-out: estimated GI50. How it is done: as §1, §2
The test system of the next test is MCF7 cells. Nature of the test: Cell proliferation, trypan blue exclusion counting. Type of test: cell-based. Particulars: Homo sapiens, read-out: estimated GI50. The procedure: as §1, §2
The next test addresses T1, recombinant Vav3 (Homo sapiens, UniProt Q9UKW4).
T1 construct: His6; made in house; host or cells: E. coli BL21 (DE3) or T7 Express, co-expressed with groEL-groES
Description: Microscale thermophoresis (MST) binding. Particulars: one molecule of IODVA1 binds, read-out: binding affinity (Kd). How it is done:
FIG. 14: IODVA1 targets Vav3 in vitro and in vivo. (A) Ba/F3 cells expressing empty vector Mieg3 or p190-BCR-ABL1 were treated with vehicle control or IODVA1 (IO1, 3 μM) for 30 min and incubated with GST-Rac and glutathione beads. Beads were washed and the protein complexes were separated on SDS-PAGE and immunoblotted for pVav3. Input Vav3 was used as control. (B) Binding affinity (Kd) between IODVA1 and Vav3 (green), LARG (brown), and RacGDP (blue). […] Error bars=SD; N=3. (C) Quantification of the average number of colonies made by bone marrow wild-type (black) and Vav3^−/− (lilac) p190-BCR-ABL1 leukemic cells treated with vehicle control or IODVA1 (IO1, 1 and 3 μM) (* p≤0.05; ** p≤0.01; *** p≤0.001; ns, not significant). (D) Representative histogram data of the cell cycle analysis of wild-type (black and grey bars) and Vav3^−/− (dark and light lilac) bone marrow cells expressing p190-BCR-ABL and treated with vehicle control or IODVA1 (IO1, 3 μM) for 20 h. (E) Quantification by densitometry of the pVav3 band from FIG. 14A. […]
To test this hypothesis, we measured its binding affinity (Kd) to recombinant Vav3 and Rac1 using microscale thermophoresis (MST); the catalytic domain (DH/PH) of the RhoGEF LARG served as negative control. […] Second, like Vav3, LARG contains a DH/PH domain responsible for the exchange activity such that any non-specific binding to this domain should be detected. […]
(In general: In MST a laser heats a spot of the sample, and binding alters the fluorescence response.)

T1 sequence (Q9UKW4 whole entry, species assumed): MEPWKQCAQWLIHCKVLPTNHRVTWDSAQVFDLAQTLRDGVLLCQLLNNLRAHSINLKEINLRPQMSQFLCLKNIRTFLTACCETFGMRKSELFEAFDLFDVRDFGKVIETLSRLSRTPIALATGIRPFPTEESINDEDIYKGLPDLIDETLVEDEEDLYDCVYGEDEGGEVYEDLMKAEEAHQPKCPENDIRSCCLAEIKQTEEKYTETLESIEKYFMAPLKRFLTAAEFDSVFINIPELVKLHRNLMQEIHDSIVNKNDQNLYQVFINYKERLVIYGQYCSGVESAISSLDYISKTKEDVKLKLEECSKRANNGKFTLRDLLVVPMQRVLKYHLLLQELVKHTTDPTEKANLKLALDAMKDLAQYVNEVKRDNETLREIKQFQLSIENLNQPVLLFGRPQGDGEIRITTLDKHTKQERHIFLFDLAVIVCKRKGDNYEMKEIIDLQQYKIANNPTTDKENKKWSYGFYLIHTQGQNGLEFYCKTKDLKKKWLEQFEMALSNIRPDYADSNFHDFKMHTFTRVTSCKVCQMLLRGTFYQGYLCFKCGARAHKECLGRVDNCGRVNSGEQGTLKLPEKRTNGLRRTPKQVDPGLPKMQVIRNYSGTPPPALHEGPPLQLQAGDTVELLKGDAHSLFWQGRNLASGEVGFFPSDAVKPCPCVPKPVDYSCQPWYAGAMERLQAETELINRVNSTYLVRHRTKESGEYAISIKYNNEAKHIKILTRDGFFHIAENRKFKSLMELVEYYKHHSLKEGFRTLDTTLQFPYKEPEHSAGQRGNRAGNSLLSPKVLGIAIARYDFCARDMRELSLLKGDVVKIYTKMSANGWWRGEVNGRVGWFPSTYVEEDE

For `OC1(c2ccccn2)N=C(Nc2nc3ccccc3[nH]2)N=C1c1ccccn1` (stereo not drawn) [IODVA1, (Z)-2-((1H-benzo[d]imidazol-2-yl)imino)-4,5-di(pyridin-2-yl)-2,5-dihydro-1H-imidazol-5-ol], the GI50 with ST8814 cells is 1000 nM; in the test on T47D cells, at most 1000 nM; in the test with MDA-MB-231 cells it was at most 1000 nM; in the test on MCF7 cells, at most 1000 nM. Further, in the test with MCF10A cells, the “appreciable decrease in proliferation” value is “not observed”. The Kd (commonly a measure of binding affinity in units of concentration) on recombinant Vav3 was 512 nM.
